Reference: patent US11000033B2, “Ketone or oxime compound, and herbicide” (NISSAN CHEMICAL CORPORATION, priority 2014, dated 2021)

What was measured:
Type in all cases: in vivo
Lolium multiflorum Lam. [1] = assay: Test Example 5: herbicidal effect by foliage application, plastic box (symbol K); conditions: 320 g/ha, 3 weeks after application
Procedure, shortened: (§1)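 Herbicide, formulated as an emulsion and diluted in water, is sprayed onto the aerial parts of 14-day seedlings. These were grown at 25° C. to 30° C. in sterilized diluvial soil; effects are graded after 3 weeks.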

Lolium multiflorum Lam. [2] = assay: Test Example 4: herbicidal effect by soil treatment (symbol K); conditions: application herbicide amount 320 g/ha
Procedure, shortened: (§2)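 Seeds were sown in sterilized diluvial soil, covered with about 1.5 cm of soil, and the soil surface was sprayed with a water-diluted emulsion of the compound at a predetermined rate. Plants grew in a greenhouse at 25° C. to 30° C.; effects were scored visually 3 weeks after application.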

Amaranthus retroflexus = assay: Test Example 5: herbicidal effect by foliage application, plastic box (symbol N); conditions: 320 g/ha, 3 weeks after application
Procedure, shortened: as §1

[3] = system: Echinochloa crus-galli var. crus-galli; assay: Test Example 4: herbicidal effect by soil treatment (symbol H); conditions: application herbicide amount 320 g/ha
Procedure, shortened: as §2

Avena fatua [4] = assay: Test Example 4: herbicidal effect by soil treatment (symbol I); conditions: application herbicide amount 320 g/ha
Procedure, shortened: as §2

Monochoria vaginalis = assay: Test Example 2: herbicidal activity, application during weed generation in submerged conditions (symbol C); conditions: Table 23; application herbicide amount 320 g/ha; grade 0-5 by criteria of Test Example 1
Procedure, shortened: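 Each pot contained alluvial soil under 4 cm of water with seeds of all three weeds sown together. Following growth at 25° C. to 30° C. to the one- to two-leaf stage, the floodwater received diluted emulsion at a predetermined amount; visual assessment followed at 3 weeks.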

Abutilon theophrasti = assay: Test Example 5: herbicidal effect by foliage application, plastic box (symbol M); conditions: 320 g/ha, 3 weeks after application
Procedure, shortened: as §1

Veronica persica = assay: Test Example 5: herbicidal effect by foliage application, plastic box (symbol R); conditions: 320 g/ha, 3 weeks after application
Procedure, shortened: as §1

rapeseed [5] = assay: Test Example 5: effect on crop by foliage application, plastic box (symbol g); conditions: 320 g/ha, 3 weeks after application
Procedure, shortened: (§3)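 A greenhouse held between 25° C. and 30° C. was used to grow plants sown spot-wise, beneath ~1.5 cm of soil, in boxes of sterilized diluvial soil.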

Alopecurus myosuroides = assay: Test Example 4: herbicidal effect by soil treatment (symbol J); conditions: application herbicide amount 320 g/ha
Procedure, shortened: as §2

Apera spica-venti = assay: Test Example 5: herbicidal effect by foliage application, plastic box (symbol L); conditions: 320 g/ha, 3 weeks after application
Procedure, shortened: as §1

Chenopodium album = assay: Test Example 5: herbicidal effect by foliage application, plastic box (symbol O); conditions: 320 g/ha, 3 weeks after application
Procedure, shortened: as §1

Avena fatua [6] = assay: Test Example 5: herbicidal effect by foliage application, plastic box (symbol I); conditions: 320 g/ha, 3 weeks after application
Procedure, shortened: as §1

beet = assay: Test Example 4: effect on crop by soil treatment (symbol f); conditions: application herbicide amount 320 g/ha
Procedure, shortened: (§4)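 Crop seed is sown in spots together with several weed species in a box of sterilized diluvial soil. It is covered by about 1.5 cm of soil and kept in a greenhouse held between 25° C. and 30° C.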

Galium spurium = assay: Test Example 5: herbicidal effect by foliage application, plastic box (symbol Q); conditions: 320 g/ha, 3 weeks after application
Procedure, shortened: as §1

Digitaria ciliaris [7] = assay: Test Example 5: herbicidal effect by foliage application, plastic box (symbol F); conditions: 320 g/ha, 3 weeks after application
Procedure, shortened: as §1

rice = assay: Test Example 4: effect on crop by soil treatment (symbol b); conditions: application herbicide amount 320 g/ha
Procedure, shortened: as §4

wheat = assay: Test Example 5: effect on crop by foliage application, plastic box (symbol e); conditions: 320 g/ha, 3 weeks after application
Procedure, shortened: as §3

Digitaria ciliaris [8] = assay: Test Example 4: herbicidal effect by soil treatment (symbol F); conditions: application herbicide amount 320 g/ha
Procedure, shortened: as §2

[9] = system: directly sowed rice plant; assay: Test Example 3: effect on crop by foliage application, Wagner pot (symbol b); conditions: application herbicide amount 320 g/ha
Procedure, shortened: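 Greenhouse culture at 25–30 °C of seeded rice, Cyperus difformis, Leptochloa chinensis and Echinochloa crus-galli var. crus-galli, in alluvial soil held under 0.1–0.5 cm of water in a Wagner pot.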

rapeseed [10] = assay: Test Example 4: effect on crop by soil treatment (symbol g); conditions: application herbicide amount 320 g/ha
Procedure, shortened: as §4

Stellaria media = assay: Test Example 5: herbicidal effect by foliage application, plastic box (symbol P); conditions: 320 g/ha, 3 weeks after application
Procedure, shortened: as §1

Compound | K: Lolium multiflorum Lam., herbicidal effect (criteria of Test Example 1) (Lolium multiflorum Lam. [1]) | Herbicidal effect grade, K: Lolium multiflorum Lam. (Lolium multiflorum Lam. [2]) | N: Amaranthus retroflexus, herbicidal effect (criteria of Test Example 1) (Amaranthus retroflexus) | Herbicidal effect grade, H: Echinochloa crus-galli var. crus-galli [3] | Herbicidal effect grade, I: Avena fatua (Avena fatua [4]) | Herbicidal effect grade, C: Monochoria vaginalis (Monochoria vaginalis) | M: Abutilon theophrasti, herbicidal effect (criteria of Test Example 1) (Abutilon theophrasti) | R: Veronica persica, herbicidal effect (criteria of Test Example 1) (Veronica persica) | g: rapeseed, effect on crop (criteria of Test Example 1) (rapeseed [5]) | Herbicidal effect grade, J: Alopecurus myosuroides (Alopecurus myosuroides) | L: Apera spica-venti, herbicidal effect (criteria of Test Example 1) (Apera spica-venti) | O: Chenopodium album, herbicidal effect (criteria of Test Example 1) (Chenopodium album) | I: Avena fatua, herbicidal effect (criteria of Test Example 1) (Avena fatua [6]) | Effect on crop grade, f: beet (beet) | Q: Galium spurium, herbicidal effect (criteria of Test Example 1) (Galium spurium) | F: Digitaria ciliaris, herbicidal effect (criteria of Test Example 1) (Digitaria ciliaris [7]) | Effect on crop grade, b: directly sowed rice plant (rice) | e: wheat, effect on crop (criteria of Test Example 1) (wheat) | Herbicidal effect grade, F: Digitaria ciliaris (Digitaria ciliaris [8]) | effect on crop b (directly sowed rice plant), grade 0-5 [9] | also measured
CON=C(C)CC1CC(OC(=O)N2CCCC2)=C(c2c(C)cc(C)cc2OC)C1=O (stereo not drawn) [6-110] | 5 (Herbicidal ratio of 90% or more (almost completely withered)) | 3 (Herbicidal ratio of 40% or higher and lower than 70%) | 0 (Herbicidal ratio of 5% or lower (almost no effect)) | 5 (Herbicidal ratio of 90% or more (almost completely withered)) | 0 (Herbicidal ratio of 5% or lower (almost no effect)) | 0 (Herbicidal ratio of 5% or lower (almost no effect)) | 4 (Herbicidal ratio of 70% or higher and lower than 90%) | 2 (Herbicidal ratio of 20% or higher and lower than 40%) | 4 (Herbicidal ratio of 70% or higher and lower than 90%) | 3 (Herbicidal ratio of 40% or higher and lower than 70%) | 5 (Herbicidal ratio of 90% or more (almost completely withered)) | 0 (Herbicidal ratio of 5% or lower (almost no effect)) | 5 (Herbicidal ratio of 90% or more (almost completely withered)) | 0 (Herbicidal ratio of 5% or lower (almost no effect)) | 3 (Herbicidal ratio of 40% or higher and lower than 70%) | 5 (Herbicidal ratio of 90% or more (almost completely withered)) | 0 (Herbicidal ratio of 5% or lower (almost no effect)) | 4 (Herbicidal ratio of 70% or higher and lower than 90%) | 0 (Herbicidal ratio of 5% or lower (almost no effect)) | 5 (Herbicidal ratio of 90% or more (almost completely withered)) | Effect on crop grade, g: rapeseed (rapeseed [10]): 0 (Herbicidal ratio of 5% or lower (almost no effect)); P: Stellaria media, herbicidal effect (criteria of Test Example 1) (Stellaria media): 1 (Herbicidal ratio of 5% or higher and lower than 20%)
CON=C(C)CC1CC(OC(=O)N2CCCCC2)=C(c2c(C)cc(C)cc2OC)C1=O (stereo not drawn) [6-111] | 5 (Herbicidal ratio of 90% or more (almost completely withered)) | 5 (Herbicidal ratio of 90% or more (almost completely withered)) | 2 (Herbicidal ratio of 20% or higher and lower than 40%) | 4 (Herbicidal ratio of 70% or higher and lower than 90%) | 0 (Herbicidal ratio of 5% or lower (almost no effect)) | 4 (Herbicidal ratio of 70% or higher and lower than 90%) | 2 (Herbicidal ratio of 20% or higher and lower than 40%) | 2 (Herbicidal ratio of 20% or higher and lower than 40%) | 4 (Herbicidal ratio of 70% or higher and lower than 90%) | 5 (Herbicidal ratio of 90% or more (almost completely withered)) | 5 (Herbicidal ratio of 90% or more (almost completely withered)) | 0 (Herbicidal ratio of 5% or lower (almost no effect)) | 5 (Herbicidal ratio of 90% or more (almost completely withered)) | 0 (Herbicidal ratio of 5% or lower (almost no effect)) | 0 (Herbicidal ratio of 5% or lower (almost no effect)) | 5 (Herbicidal ratio of 90% or more (almost completely withered)) | 1 (Herbicidal ratio of 5% or higher and lower than 20%) | 4 (Herbicidal ratio of 70% or higher and lower than 90%) | 4 (Herbicidal ratio of 70% or higher and lower than 90%) | 5 (Herbicidal ratio of 90% or more (almost completely withered)) | Effect on crop grade, g: rapeseed (rapeseed [10]): 0 (Herbicidal ratio of 5% or lower (almost no effect)); P: Stellaria media, herbicidal effect (criteria of Test Example 1) (Stellaria media): 1 (Herbicidal ratio of 5% or higher and lower than 20%)
CON=C(C)CC1CC(OC(=O)N2CCOCC2)=C(c2c(C)cc(-c3ccc(F)c(Cl)c3)cc2C)C1=O (stereo not drawn) [6-093] | 5 (Herbicidal ratio of 90% or more (almost completely withered)) | 1 (Herbicidal ratio of 5% or higher and lower than 20%) | 3 (Herbicidal ratio of 40% or higher and lower than 70%) | 5 (Herbicidal ratio of 90% or more (almost completely withered)) | 0 (Herbicidal ratio of 5% or lower (almost no effect)) | 3 (Herbicidal ratio of 40% or higher and lower than 70%) | 3 (Herbicidal ratio of 40% or higher and lower than 70%) | 5 (Herbicidal ratio of 90% or more (almost completely withered)) | 4 (Herbicidal ratio of 70% or higher and lower than 90%) | 3 (Herbicidal ratio of 40% or higher and lower than 70%) | 5 (Herbicidal ratio of 90% or more (almost completely withered)) | 5 (Herbicidal ratio of 90% or more (almost completely withered)) | 5 (Herbicidal ratio of 90% or more (almost completely withered)) | 0 (Herbicidal ratio of 5% or lower (almost no effect)) | 5 (Herbicidal ratio of 90% or more (almost completely withered)) | 5 (Herbicidal ratio of 90% or more (almost completely withered)) | 1 (Herbicidal ratio of 5% or higher and lower than 20%) | 5 (Herbicidal ratio of 90% or more (almost completely withered)) | 5 (Herbicidal ratio of 90% or more (almost completely withered)) | 5 (Herbicidal ratio of 90% or more (almost completely withered)) | Effect on crop grade, g: rapeseed (rapeseed [10]): 0 (Herbicidal ratio of 5% or lower (almost no effect)); P: Stellaria media, herbicidal effect (criteria of Test Example 1) (Stellaria media): 4 (Herbicidal ratio of 70% or higher and lower than 90%)
